Assay results taken from PubChem BioAssay (NCI).
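These data come from cells grown in 96-well plates and exposed to compound for 48 hours at five concentrations. TGI denotes the concentration required for complete inhibition of growth.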

Columns and labels:
Experiment in all cases: growth of human tumour cells (NCI), 48 h
SK-MEL-5 melanoma = system: SK-MEL-5 melanoma
A498 renal = system: A498 renal
OVCAR-8 ovarian = system: OVCAR-8 ovarian
U251 CNS = system: U251 CNS
SF-295 CNS = system: SF-295 CNS
SN12C renal = system: SN12C renal
UO-31 renal = system: UO-31 renal
UACC-257 melanoma = system: UACC-257 melanoma
SF-539 CNS = system: SF-539 CNS
NCI-H23 lung = system: NCI-H23 lung
NCI-H522 lung = system: NCI-H522 lung
SF-268 CNS = system: SF-268 CNS
MCF7 breast = system: MCF7 breast
PC-3 prostate = system: PC-3 prostate
MDA-N = system: MDA-N
T-47D breast = system: T-47D breast

| SMILES | TGI (SK-MEL-5 melanoma) | TGI (A498 renal) | TGI (OVCAR-8 ovarian) | TGI (U251 CNS) | TGI (SF-295 CNS) | TGI (SN12C renal) | TGI (UO-31 renal) | TGI (UACC-257 melanoma) | TGI (SF-539 CNS) | TGI (NCI-H23 lung) | TGI (NCI-H522 lung) | TGI (SF-268 CNS) | TGI (MCF7 breast) | TGI (PC-3 prostate) | TGI (MDA-N) | TGI (T-47D breast) |
| --- | --- | --- | --- | --- | --- | --- | --- | --- | --- | --- | --- | --- | --- | --- | --- | --- |
| COc1ccccc1NC(=O)C(=O)C(c1cnc2ccc([N+](=O)[O-])cc2n1)[N+](=O)[O-] (centres undefined) | > 100 µM | > 100 µM | > 100 µM | > 100 µM | > 100 µM | > 100 µM | > 100 µM | > 100 µM | > 100 µM | > 100 µM | > 100 µM | > 100 µM | – | – | – | – |
| O=C1Nc2n[nH]c(=S)n2NC12c1ccccc1-c1ccccc12 | > 100 µM | > 100 µM | > 100 µM | > 100 µM | > 100 µM | > 100 µM | > 100 µM | 48.4 µM | > 100 µM | > 100 µM | > 100 µM | > 100 µM | > 100 µM | > 100 µM | > 100 µM | – |
| COc1cc2cnc3c4cc(O)ccc4ccc3c2cc1OC | > 100 µM | – | > 100 µM | > 100 µM | > 100 µM | > 100 µM | > 100 µM | > 100 µM | > 100 µM | > 100 µM | 70.9 µM | > 100 µM | – | – | – | – |
| COc1cc2c(c(OC)c1)C(=O)C(=O)C(CC1(C)OCCCO1)=C2 | 18.1 µM | 31.3 µM | 28.6 µM | 28.7 µM | 27.1 µM | 26.8 µM | 25.6 µM | 27.4 µM | 32 µM | 24.3 µM | 2.7 µM | 30.1 µM | – | – | – | – |
| O=C1CS(=O)c2ccccc2N1 (centres undefined) | > 100 µM | > 100 µM | > 100 µM | > 100 µM | > 100 µM | > 100 µM | > 100 µM | > 100 µM | > 100 µM | > 100 µM | > 100 µM | > 100 µM | – | – | – | – |
| COc1c(N2CCCCC2)c2c(=O)c3ccccc3oc2c2c3ccccc3n(C)c12 | > 100 µM | – | > 100 µM | > 100 µM | > 100 µM | > 100 µM | > 100 µM | > 100 µM | > 100 µM | > 100 µM | – | > 100 µM | > 100 µM | > 100 µM | > 100 µM | – |
| O=C1/C(=C/c2cccc([N+](=O)[O-])c2)Cc2ccccc21 | – | – | > 100 µM | > 100 µM | > 100 µM | > 100 µM | > 100 µM | > 100 µM | > 100 µM | > 100 µM | > 100 µM | > 100 µM | > 100 µM | > 100 µM | > 100 µM | – |
| CC(=O)Oc1ccc(C)c2c1[C@H]1CC[C@]3(C)[C@@H](OC(C)=O)CC[C@H]3[C@@H]1CC2 | 34.9 µM | 31.4 µM | 58.3 µM | 29.1 µM | 48.5 µM | 39 µM | > 100 µM | 35.6 µM | 38 µM | 34.7 µM | 34.1 µM | 80.3 µM | 38.9 µM | – | 36.8 µM | 40.6 µM |
| Cc1nc2c(n1Cc1ccc(F)cc1)C(=O)c1ccccc1C2=O | 24.7 µM | – | > 100 µM | > 100 µM | > 100 µM | > 100 µM | > 100 µM | > 100 µM | > 100 µM | > 100 µM | 26 µM | > 100 µM | – | – | – | – |
| C=C1C(=O)O[C@H]2C1C[C@H](O)/C(C)=C/CC[C@@]1(C)O[C@H]21 (some centres undefined) | 22.6 µM | – | 37.6 µM | > 100 µM | 82.5 µM | 33.8 µM | 28.6 µM | 34.5 µM | – | 37.5 µM | 3.43 µM | 74.5 µM | 27.6 µM | – | 30.3 µM | – |
| CC1=NC(=O)CNN1C1=NNC2(C(=O)N1)c1ccccc1-c1ccccc12 | > 100 µM | > 100 µM | > 100 µM | > 100 µM | > 100 µM | > 100 µM | > 100 µM | > 100 µM | > 100 µM | > 100 µM | > 100 µM | > 100 µM | > 100 µM | > 100 µM | > 100 µM | – |
| N#C/C(=C\c1ccccc1F)C(=O)c1ccccc1 | > 100 µM | > 100 µM | > 100 µM | > 100 µM | > 100 µM | > 100 µM | > 100 µM | > 100 µM | > 100 µM | > 100 µM | > 100 µM | > 100 µM | – | – | – | – |
| CC(Cn1c(=O)oc2ccccc21)N(C)C (centres undefined) | > 100 µM | > 100 µM | > 100 µM | > 100 µM | > 100 µM | > 100 µM | – | > 100 µM | > 100 µM | > 100 µM | – | > 100 µM | > 100 µM | > 100 µM | > 100 µM | – |
| CN(C)C1(N(C)C)Oc2c(c(=O)n(C)c(=O)n2C)C(c2ccc(F)cc2)C1(F)F (centres undefined) | > 100 µM | > 100 µM | – | > 100 µM | > 100 µM | – | > 100 µM | > 100 µM | – | > 100 µM | – | > 100 µM | > 100 µM | > 100 µM | – | > 100 µM |
| CC(C)OP(=O)(OC(C)C)/C(=N/Nc1ccc([N+](=O)[O-])cc1)NNC(=O)c1ccccc1 | 32 µM | – | > 100 µM | 76.7 µM | – | > 100 µM | > 100 µM | > 100 µM | > 100 µM | 79.3 µM | > 100 µM | > 100 µM | – | – | – | – |
| Cc1cc2nc3c(C#N)c4c(c(Cl)n3c2cc1C)CCC4 | 50.1 µM | > 100 µM | 37.4 µM | 30.4 µM | > 100 µM | 33.8 µM | – | > 100 µM | 49.5 µM | 62.6 µM | 32.5 µM | 53.3 µM | – | – | – | > 100 µM |
| CN(CCO)c1nc(=O)c2c(n1C1OC(CO)C(O)C(O)C1O)CCCC2 (centres undefined) | > 100 µM | – | > 100 µM | > 100 µM | > 100 µM | > 100 µM | > 100 µM | > 100 µM | > 100 µM | > 100 µM | > 100 µM | > 100 µM | – | – | – | – |
| CCCCCCCC(=O)OC(COC(=O)Cc1ccccc1)COC(=O)C(C)(C)C (centres undefined) | > 100 µM | > 100 µM | > 100 µM | > 100 µM | > 100 µM | > 100 µM | > 100 µM | – | – | > 100 µM | – | > 100 µM | – | – | – | – |
